The nature of data set [1]: ob/ob mice (Example 50): cholesterol, lipid, triglyceride, liver enzyme and glucose levels. The format is in vivo, mouse. The settings on record: high fat high cholesterol diet, 50 mg/kg i.p. twice a week, six weeks. Put shortly: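 Ob/ob mice on 60% kcal fat diet with 0.15% cholesterol received 50 mg/kg oligonucleotide i.p. twice weekly for six weeks, with saline and control oligonucleotides.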

Data set [2] in a line: High fat fed C57BL/6 mice, 6 week timecourse: body, spleen, liver and fat pad weight. The format is in vivo, mouse. To be noted: six weeks, vs saline-treated controls. On the procedure: Male C57BL/6 mice (n=8) receiving a high fat diet (60% kcal fat) were evaluated over the course of 6 weeks for the effects of ISIS 147764 on body, spleen, liver and fat pad weight. Control animals received saline treatment (50 mg/kg). […]
At study termination, animals were sacrificed 48 hours after the final injections and body, spleen, liver and fat pad weights were measured. Values are expressed as percent change in body weight or ogan weight compared to the saline-treated control animals. Negative values indicated a decrease in weight.

The nature of data set [3]: Evaluation of steatosis in high fat fed animals treated for 6 weeks, liver histology. The settings on record: high fat fed C57BL/6 mice; 6 weeks of treatment. The format is in vivo, mouse. The source says: Tissue resected from liver is immediately immersed in Tissue Tek OCT embedding compound (Ted Pella, Inc., Redding, Calif.) and frozen in a 2-methyl-butane dry ice slurry. Tissue sections are cut at a thickness of 4-5 μm and then fixed in 5% neutral-buffered formalin. Tissue sections are stained with hematoxylin and eosin following standard histological procedures to visualize nuclei and cytoplasm, respectively, and oil red 0 according to the manufacturer's instructions (Newcomers Supply, Middleton, Wis.) to visualize lipids.
Alternatively, tissues are fixed in 10% neutral-buffered formalin, embedded in paraffin, sectioned at a thickness of 4-5 μm, deparaffinized and stained with hematoxylin and eosin, all according to standard histological procedures.
Liver tissue from ISIS 147764 (SEQ ID NO: 109) and control-treated animals described in Example 21 was evaluated for steatosis at study termination following 6 weeks of treatment. Tissue sections were stained with oil red 0 and hematoxylin to visualize lipids and nuclei, respectively. Tissue sections were also stained with hematoxylin and eosin to visualize nuclei and cytoplasm, respectively.

Data set [4] in a line: Long-term study in lean CD-1 mice (Example 63): serum lipids and indicators of toxicity (ALT, AST, histology, steatosis). The class given is in vivo, mouse. The settings on record: one month. On the procedure: In accordance with the present invention, the toxicity of ISIS 301012 (SEQ ID NO: 247) is investigated in a long-term, 3 month study in mice. Two-month old male and female CD-1 mice (Charles River Laboratories, Wilmington, Mass.) are dosed with 2, 5, 12.5, 25 or 50 mg/kg of ISIS 301012 twice per week for first week, and every 4 days thereafter. The mice are maintained on a standard rodent diet. Saline and control oligonucleotide animals serve as controls and are injected on the same schedule. Each treatment group contains 6 to 10 mice of each sex, and each treatment group is duplicated, one group for a 1 month study termination, the other for a 3 month study termination. After the 1 or 3 month treatment periods, the mice are sacrificed and evaluated for target expression in liver, lipid levels in serum and indicators of toxicity. Liver samples are procured, RNA is isolated and apolipoprotein B mRNA expression is measured by real-time PCR as described in other examples herein. Serum lipids, including total cholesterol, LDL-cholesterol, HDL-cholesterol and triglycerides, are evaluated by routine clinical analysis using an Olympus Clinical Analyzer (Olympus America Inc., Melville, N.Y.). Ratios of LDL-cholesterol to HDL-cholesterol and total cholesterol to HDL-cholesterol are also calculated. Analyses of serum ALT and AST, inflammatory infiltrates in tissue and basophilic granules in tissue provide an assessment of toxicities related to the treatment. Hepatic steatosis, or accumulation of lipids in the liver, is assessed by routine histological analysis with oil red 0 stain and measurement of liver tissue triglycerides using a Triglyceride GPO Assay (Sigma-Aldrich, St. Louis, Mo.).
The toxicity study also includes groups of animals allowed to recover following cessation of oligonucleotide treatment. Both male and female CD-1 mice (Charles River Laboratories, Wilmington, Mass.) are treated with 5, 10, 50 mg/kg of ISIS 301012 twice per week for the first week and every 4 days thereafter. Saline and, control oligonucleotide injected animals serve as controls. Each treatment group includes 6 animals per sex. After 3 months of treatment, animals remain untreated for an additional 3 months, after which they are sacrificed. The same parameters are evaluated as in the mice sacrificed immediately after 3 months of treatment.
Additionally, the expected dose-response toxicities were observed. ALT and AST levels, measured by routine clinical procedures on an Olympus Clinical Analyzer (Olympus America Inc., Melville, N.Y.), are increased in mice treated with 25 or 50 mg/kg of ISIS 301012. Tissues were prepared for analysis by routine histological procedures.

Data set [5] deals with human apolipoprotein B protein (apolipoprotein B-100 and apolipoprotein B-48). The data set can be described thus: Transgenic mice dosing study (Example 52): immunoblot of human apolipoprotein B protein in serum and liver. The class given is in vivo, human transgene in mouse. The protocol: Apolipoprotein B protein in serum was also assessed by immunoblot analysis using an antibody directed to human apolipoprotein B protein (US Biologicals, Swampscott, Mass.).

Results on 3 substances are retold here after patent US7803930B2, “Antisense modulation of apolipoprotein B-expression” (Isis Pharmaceuticals, Inc., priority 2002, dated 2010).

In the oligonucleotide strings, read from the 5' end, every base follows the letter of its sugar. An asterisk marks phosphorothioate; unmarked linkages are phosphodiester. Other units and linkages are bracketed, terminal groups are in braces. A string of capitals states the bases alone. e = 2'-O-(2-methoxyethyl) (MOE); [5mC] = 5-methylcytosine; d = 2'-deoxy (DNA)

With “147764 (eG*eT*e[5mC]*e[5mC]*e[5mC]*dT*dG*dA*dA*dG*dA*dT*dG*dT*d[5mC]*eA*eA*eT*eG*e[5mC]) [compound 147764]”, in data set [1], the Glucose is reported as 209.2 mg/dL, the “Lipoproteins CHOL” value is 286.3 mg/dL, the “Lipoproteins TRIG” value came out at 101.2 mg/dL and the “Liver Enzymes ALT” value is reported as 835.0 IU/L. In data set [1], the “Liver Enzymes AST” value was found to be 406.5 IU/L; the “glucose, cholesterol, and triglyceride levels” value is given as “able to lower”.

“GTCCCTGAAGATGTCAATGC (2'-MOE gapmer, further chemistry not given here) [ISIS 147764]”: in data set [2] (5 mg/kg i.p.), the “Percent Change Fat (fat pad weight)” value came out at 10%, the “Percent Change Liver weight” value came out at 18%, the “Percent Change Spleen weight” value is reported as 10% and the “Percent Change Total Body Wt.” value is 5%. Further, in data set [2] (25 mg/kg i.p.), the “Percent Change Fat (fat pad weight)” value worked out at 6%, the “Percent Change Liver weight” value turned out to be 70%, the “Percent Change Spleen weight” value was 10% and the “Percent Change Total Body Wt.” value turned out to be 5%. Further, in data set [2] (50 mg/kg i.p.), the “Percent Change Fat (fat pad weight)” value is −47%, the “Percent Change Liver weight” value was 80%, the “Percent Change Spleen weight” value came to 46% and the “Percent Change Total Body Wt.” value was −4%. Further, the “steatosis vs saline treated animals (histology)” value in data set [3] is given as “no difference in steatosis”.

Turning to “ISIS 301012: SEQ ID NO: 247, antisense oligonucleotide targeted to human apolipoprotein B (antisense GCCTCAGTCTGCTTCGCACC; chemistry not given here)”, in data set [4] (25 or 50 mg/kg), the “ALT and AST levels” value was “increased”. Moreover, in data set [4], the “doses at which basophilic granules in liver and kidney tissue were observed” value is given as “above 12.5 mg/kg”; the “doses at which mild lymphohistiocytic infiltrates were observed in various tissues” value was “above 12.5 mg/kg”; the “steatosis (oil red O staining)” value was “no steatosis”. Also, the “expression of human apolipoprotein B, B-100 and B-48 forms, in liver (immunoblot)” value in data set [5] is listed as “reduction”. In addition, the “human apolipoprotein B protein in serum, B-100 and B-48 forms (immunoblot)” value in data set [5] (2, 4, 6 and 12 weeks of treatment) is “lowered”.
